Drawing on a melting point compilation (Tetko et al.), this text covers melting point for 111 compounds.

Compound `CCC(C)(C)c1ccc(O)c(C(C)(C)CC)c1` showed a melting point of 25 °C. Compound `O=[N+]([O-])OC1COC2C(O)COC12` (stereo unspecified) displayed a melting point of 88 to 93 °C. For `OC(C#CC#CC(O)(c1ccccc1)c1ccccc1Cl)(c1ccccc1)c1ccccc1Cl` (single isomer, unassigned; (+)) the value was 130 to 133 °C; for `CC(=O)c1cccnc1C(=O)OC(C)C`, 40 °C; for `C#CC1(OC(C)=O)CCC2C3CCC4=CC(=NO)CCC4C3CCC21CC` (stereo unspecified), 216 °C. In the case of `CCCCC(CC)CN` (stereo unspecified) it was -76 °C; in that of `O=C(C=NNc1ccccc1)c1ccc(C(=O)C=NNc2ccccc2)cc1`, 210 °C; in that of `NCC(O)C(O)C(O)C(O)CO` (stereo unspecified), 127 °C. In turn, `O=C1CCc2ccc(F)cc21` registered a melting point of 61 to 63 °C. For `COc1cccc(C2(O)CCCCC2CN(C)C)c1` (stereo unspecified) the value was 180 °C; for `CC1(C)C2CC3C(c4ccccc4)(C2=C(c2ccccc2)c2ccccc2)C31C` (stereo unspecified), 164 °C; for `COc1cc(C)ccc1S(=O)(=O)Cl`, 87 °C. For `CCOC(=O)C(CCc1ccccc1)NC1CCc2ccccc2N(CC(=O)O)C1=O` (stereo unspecified) the value was 148 °C; for `ClCc1cc2cc(Br)ccc2o1`, 63 to 64 °C. For `O=c1ccc([N+](=O)[O-])cn1Cc1ccccc1` the value was 96 °C. Take `CCCCCCCCCCCCCCCCOCC(O)CO` (stereo unspecified): the melting point was 64 °C.

Compound `CC12CCC(C(C(c3ccccc3)c3ccccc3)C1=O)C2(C)C` (stereo unspecified) yielded a melting point of 137 °C. Regarding `S=c1nnc(-c2ccccc2)c(Nc2ccc(Cl)cc2)[nH]1`, the melting point is 314 °C.

For `c1ccc(Nc2ccc3ccccc3c2)cc1`, the melting point is 108 °C. On to `COc1ccc2c(c1C)CC2=O`, for which the melting point fell in the range of 72 to 73 °C. In the case of `CCOC(=O)c1c(C)csc1N` it was 81 °C. In the case of `CC(CCC(=O)O)C1CCC2=C3CCC4CC(O)CCC4(C)C3CC(O)C21C` (stereo unspecified) it was 172 °C; in that of `CC(C)(C)OC(=O)N[C@H](CC(=O)O)Cc1ccccc1`, 104 °C; in that of `O=C(O)C=Cc1cccc(Cl)c1`, 163 to 166 °C.

`CC(C)(C)OC(=O)N1CCC(c2nc(C=O)cs2)CC1` returned a melting point of 91 to 93 °C. For `O=C(O)CCc1ccc(C(=O)O)cc1` the value was 290 °C.

`COc1cc(C=C2C(=O)NC(=N)N2C)ccc1O` yielded a melting point of 270 to 273 °C.

For `CCCCCCCCCCF`, the melting point was -35 °C. For `CC12CCC(/C(=C/Nc3ccccc3)C1=O)C2(C)C` (stereo unspecified) the value was 165 to 167 °C; for `Nc1cccc(Cn2ccnc2)c1`, 72 to 74 °C. Compound `Cc1onc(-c2ccc(F)cc2)c1C(=O)Cl` yielded a melting point of 51 to 55 °C.

Compound `OCC(O)C(O)C(O)C(O)CO` (stereo unspecified) had a melting point of 190 °C. In turn, `CC(=O)Nc1ccc(-c2csc(N)n2)cc1` showed a melting point of 250 °C. For `OCC1(c2ccc(Cl)cc2)CC1`, the melting point fell in the range of 50 to 54 °C. For `OCCC1CCCCN1` (stereo unspecified) the value was 69 °C; for `CCOc1nc(F)cc2nc(S(=O)(=O)Nc3c(Cl)cccc3C(=O)OC)nn12`, 217 °C. In the case of `Cc1ccc2cccc-2cc1` it was 82 to 83 °C; in that of `CCOC(=O)c1[nH]nc(C)c1C(=O)OCC`, 98 to 99 °C. For `CN(C)c1ccc(/C=C(\C#N)c2nc3ccccc3n2C)cc1` the value was 151 °C; for `Clc1ccccc1C(c1ccccc1)(c1ccccc1)n1ccnc1`, 147 °C; for `Cc1cc(C)n(C)n1`, 35.5 °C. For the compound `Cc1nc(-c2ccccc2)sc1Br`, the melting point turned out to be 60 °C. For `O=Cc1ccc(OCc2ccccc2F)cc1` the value was 54 to 57 °C; for `O=c1[nH]ncc(Cl)c1Cl`, 202 °C; for `O=C1Nc2ccc(Cl)cc2C(c2ccccc2Cl)=NC1O` (stereo unspecified), 166 °C. In turn, `c1ccc(Cc2ccc3c4ccccc4c4ccccc4c3c2Cc2ccccc2)cc1` showed a melting point of 178 °C.

With `COc1ccccc1/N=N/c1c(N)nn2c(-c3ccccc3)cc(=O)[nH]c12`, the melting point lay within 303 to 305 °C. For `N#Cc1sc(Br)c2c1OCCO2`, the melting point is 149 to 150 °C. In turn, `OCC1OC=CC(O)C1O` (stereo unspecified) came in with a melting point of 99 to 103 °C. In the case of `Nc1ccc(Br)nn1` it was 194 °C; in that of `Cc1ccc(OCC(=O)O)c(C)c1`, 141 °C; in that of `N#Cc1cc(F)ccc1Br`, 90 °C. For `CCCCCOC(=O)C1=C(C)NC(=O)NC1c1ccc2c(c1)OCO2` (stereo unspecified) the value was 144 °C. Turning to `COC(=O)C1(C(=O)OC)Cc2c(C)c(C)c(C)c(C)c2C(=O)O1`, the melting point came to 166 °C. As for `c1ccc2c(c1)Nc1ccccc1O2`, the melting point was 156 °C. In the case of `CCCC1C2=C(OC(=O)C1(C)C)c1ccc(OC)cc1CC2` (stereo unspecified), the melting point was found to be 129 °C. In the case of `S=C1NCCCN1`, the melting point is 211 °C. Turning to `Oc1cccc2[nH]c3ccccc3c12`, the melting point lay in the range of 169 to 173 °C. The compound `Nc1nn2c(C(F)(F)F)cc(=O)[nH]c2c1/N=N/c1cccc2ccccc12` gave a melting point of 290 °C.

Compound `Cc1ccccc1C(N)=S` returned a melting point of 142 to 143 °C. `CCCSc1sc(C(=O)OC)c2c1C(=O)CC(C)(C)C2` yielded a melting point of 95 to 98 °C. For `O=C1C(Cl)=C(Cl)C(=O)C(Cl)=C1Cl` the value was 290 °C.

As for `COc1ccc(Br)c(C(N)=O)c1`, the melting point amounted to 160 °C. Compound `Cc1n[nH]c(SCc2ccc(Cl)cc2)n1` showed a melting point of 151 to 153 °C. In the case of `N#C/C(=N\Nc1ccc(Cl)cc1)c1nc2ccccc2s1`, the melting point was determined as 188 °C. For the compound `COC(=O)CC[C@H](N)C(=O)O`, the melting point turned out to be 182 °C.

Compound `Nc1nc2ccccc2n1Cc1ccccc1` had a melting point of 200 to 204 °C. In the case of `NC(=S)c1ccc2c(c1)CCO2` it was 145 to 155 °C; in that of `Cc1ccc(C(=CCN2CCCC2)c2ccccn2)cc1`, 60 °C; in that of `C=CCC1(C2C=CCCC2)C(=O)NC(=S)NC1=O` (stereo unspecified), 148 °C. For `COC(=O)c1ccc(O)c(O)c1` the value was 136 °C. For `Nc1cc(F)ccc1-n1ccnc1`, the melting point is 127 °C. For `COc1cc2c(cc1OC)[C@@H](C(=O)c1ccc3c(c1OC)C=CC(C)(C)O3)CCO2`, the melting point came out at 118 °C. For `OCC1Cc2ccccc2N1` (stereo unspecified) the value was 49 to 58 °C; for `CCOC(=O)c1c(C)sc(Sc2ccccc2[N+](=O)[O-])c1O`, 144 to 146 °C; for `CN(C)CCCN1c2ccccc2S(=O)c2ccc(Cl)cc21` (stereo unspecified), 115 °C.

`N#CC1C(=S)NC2(C(=O)Nc3ccccc32)C2=C1CCC2` (stereo unspecified) had a melting point of 311 °C. Take `C/C(=N\c1ccccc1O)c1c(O)c2ccccc2n(-c2ccccc2)c1=O`: the melting point is 268 to 269 °C. For `CC12CCC3C(=CCc4cc(O)ccc43)C1CCC2O` (stereo unspecified) the value was 174 °C; for `CC(N)CC(=O)O` (stereo unspecified), 193 °C. As for `CN(C(=O)C(Cl)Cl)c1ccc(O)cc1`, the melting point was 175 °C.

As for `O=C(O)COc1cccc(CBr)c1`, the melting point was 126 °C. In the case of `O=C1NCCSC1c1ccccc1` (stereo unspecified) it was 158 to 162 °C; in that of `CCC(Br)(CC)C(=O)NC(=O)NC(C)=O`, 109 °C; in that of `Cc1c(NC(C)C)c(=O)n(-c2ccccc2)n1C`, 80 °C. In the case of `Nc1cc(C(F)(F)F)ccc1N1CCOCC1` it was 135 to 137 °C; in that of `C[C@]12CC[C@H]3O[C@H]3[C@@H]1CC[C@@H]1[C@@H]2CC[C@]2(C)C(=O)CC[C@@H]12`, 158 °C; in that of `OC1C2CCC1C1C=CC2O1` (stereo unspecified), 121 to 123 °C. In the case of `NCCCCC(=O)O` it was 158 to 161 °C; in that of `Nc1nc(-c2ccc(Br)cc2)cs1`, 184 °C; in that of `O=S(=O)(Cl)C(Cl)(Cl)Cl`, 140 °C. `Cc1ccc(C#N)n1C` returned a melting point of 53 to 56 °C. With `O=C(O)COc1ccc(OCC(=O)O)cc1`, the melting point lay within 248 to 251 °C. As to `Nc1ccc2cc[nH]c2c1`, the melting point is 73 °C.

`CN(C)C1=NC(=O)C(c2ccccc2)O1` (stereo unspecified) yielded a melting point of 133 °C. In the case of `CC1(C)C2CCC1(C)C(/N=C\c1ccc([N+](=O)[O-])cc1)C2/N=C/c1ccc([N+](=O)[O-])cc1` (stereo unspecified) it was 170 °C; in that of `CC1(C)C(C=Cc2cc([N+](=O)[O-])cc([N+](=O)[O-])c2[O-])=[N+](Cc2ccccc2)c2ccccc21`, 244 to 246 °C. In the case of `Nc1cc(-c2ccc(F)cc2)nc(N)n1` it was 164 to 166 °C. As to `S=c1sc2ccccc2n1CSc1nc2ccccc2s1`, the melting point was determined as 211 °C.

As for `O=C(O)C1C2CCC(C2)C1C(=O)c1ccccc1` (stereo unspecified), the melting point was in the range of 180 to 183 °C. In the case of `O=[N+]([O-])c1ccc(/C=C\c2ccccc2C=NNc2ccccc2)c([N+](=O)[O-])c1` it was 193 °C; in that of `c1ccc(C2=NN(c3ccccc3)C2)cc1`, 138 °C; in that of `N#CCc1ccc(Cl)c(Cl)c1`, 40 °C. Consider `CC1(C)CC(O)CC(C)(C)N1`, for which the melting point turned out to be 131 °C. In turn, `C#CC1(O)CCC2C3CCC4=CC(O)CCC4(C)C3CCC21C` (stereo unspecified) yielded a melting point of 204 °C. Regarding `O=C1/C(=C\c2ccc(Cl)cc2)SC(=S)N1CN1CCCCC1`, the melting point is 122 °C. The compound `CC(=O)OCC(OC(C)=O)C(OC(C)=O)C(OC(C)=O)C(OC(C)=O)C(N)=O` (stereo unspecified) had a melting point of 187 to 188 °C. Compound `CCCCCCC(=O)OCCCCC` registered a melting point of -50 °C. For `CCOP(=S)(OCC)SC(CCl)N1C(=O)c2ccccc2C1=O` (stereo unspecified) the value was 68 °C. In the case of `C=Cc1c(SC)sc(C(=O)O)c1C`, the melting point fell in the range of 172 to 174 °C. In the case of `c1ccc2nsnc2c1` it was 43 °C.

The melting point is the temperature of the solid-liquid transition.
